Common to all, as to type: in vivo, C57BL/6 mice
Assay [1] concerns mice in which sleep disorder was induced followed by transfer of EAE-pathogenic CD4 positive T cells. Nature of the assay: Pathological conditions (EAE clinical score, mortality, fecal occult blood) of disease modeling mice. The procedure:
Loading PAWW stress and induction of sleep disorder thereby were performed as described previously (Miyazaki, K. et al., PloS one, 2013, 8, e55452). 6-8 weeks old C57BL/6 mice were individually maintained in plastic cages with running wheels for habituation. Then, through loading PAWW stress by replacing wood beddings in the cages with water having depth of 1.5 cm to make the mice exercise continuously on the wheel for 2 days, sleep disorder was induced in the mice.
Preparation and transfer of EAE-pathogenic CD4 positive T cells were performed as described previously (Arima, Y. et al., Cell., 2012, 148, 447-457; Arima, Y. et al., eLife, 2015, 4, e08733; Ogura, H. et al., Immunity, 2008, 29, 628-636). Briefly, C57BL/6 mice were injected subcutaneously with a MOG (35-55) peptide (Sigma-Aldrich Co. LLC.) together with complete Freund's adjuvant (Sigma-Aldrich Co. LLC.) at the base of the tail, then 0, 2, and 7 days after MOG peptide injection, the mice were further injected intravenously with pertussis toxin (Sigma-Aldrich Co. LLC.). 9 days after MOG peptide injection, lymphocytes were collected from the spleens of the mice, sorted with anti-CD4 microbeads (Miltenyi Biotec, Inc.) to obtain a cell population rich in CD4 positive T cells. The resulting cell population (4×10^6 cells) was co-cultured with MOG peptide-pulsed irradiated spleen cells (1×10^7 cells) for 2 days in the presence of rIL-23 (10 ng/mL; R & D Systems, Inc.). Cells were collected from the culture medium, enriched with the anti-CD4 microbeads, and EAE-pathogenic CD4 positive T cells were prepared.
2 days after starting stress load described in (i) above, the EAE-pathogenic CD4 positive T cells (1.5×10^7 cells) prepared in (ii) above were transferred to the mice by intravenous injection to produce disease modeling mice. Also, mice into which EAE-pathogenic CD4 positive T cells were transferred without stress load, mice into which EAE-pathogenic CD4 positive T cells were not transferred after stress load, mice without stress load and without EAE-pathogenic CD4 positive T cells transfer, were prepared.
Pathological conditions of EAE in the mice prepared in Example 1 were evaluated with clinical score. Clinical score was determined as described previously (Arima, Y. et al., Cell, 2012, 148, 447-457; Arima, Y. et al., eLife, 2015, 4, e08733; Ogura, H. et al., Immunity, 2008, 29, 628-636). Clinical scores represent the severity of encephalomyelitis symptoms, and the scores increase with increasing the severity. A score of 0 is equivalent to normal state without abnormal findings, and a score of 5 is equivalent to death.
(§1) Pathological conditions of gastroenteritis in the mice prepared in Example 1 (1) were evaluated on 10 days after the transfer of EAE-pathogenic CD4 positive T cells. Stools collected from each mouse were suspended in saline (20 mL/g stool), the supernatants obtained by centrifugation (8000 rpm, 5 minutes) were diluted to 10 times with saline, and fecal occult blood test was performed with Hemastix (Registered) (Siemens Healthcare Pty, Ltd.). Bloody stool scores were calculated according to the scoring method described on the package of Hemastix.

In assay [2] the test system is specific blood vessels in the boundary area of the third ventricle, thalamus, and dentate gyrus. Description: Cell accumulation at the specific blood vessels of disease modeling mice (immunohistochemistry, flow cytometry). To be noted: 0.2 μL of 2 mg/ml microinjected at the specific blood vessels 4 days before T cell transfer; FIG. 22. From the text:
Accumulation of MHC class II positive cells and CD4 positive T cells in the mice prepared in Example 1 (1) was investigated. The fifth lumbar vertebra and the brain were removed from the mice 10 days after transferring EAE-pathogenic CD4 positive T cells, embedded in SCEM (SECTION-LAB Co., Ltd.), and sliced to sections with a thickness of 10 μm using a microtome device, CM3050 (Leica Microsystems GmbH). Sections were collected using Cryofilm type IIIC (16UF) (SECTION-LAB Co., Ltd.), subjected to hematoxylin eosin staining, or to immunohistochemical staining with an anti-MHC class II antibody or anti-CD4 antibody, and analyzed by BZ-9000 microscope (KEYENCE Corporation) using HS ALL software in BZ-II analyzer (KEYENCE Corporation).
Furthermore, brains were removed from the mice 9 days after transferring EAE-pathogenic CD4 positive T cells, dissected into each parts of the cerebellum and brain stem, cortex, and hippocampus and interbrain, and enzymatically digested with Neural Tissue Dissection kit (Miltenyi Biotec Company) to prepare single cell suspension. […] Then, the cells were analyzed using CyAn flow cytometer (Beckman Coulter Corporation), and the obtained data were analyzed using Summit software (Beckman Coulter Corporation) or FlowJo software (Tree Star, Inc.). […]
Background: In flow cytometry, cells or beads pass a laser one at a time.

In assay [3] the test system is dopamine/noradrenergic neurons. Description: Immunostaining of third ventricular regions of chemically sympathectomized mice (tyrosine hydroxylase, phosphorylated CREB). The following applies: 0.2 μL of 2 mg/ml microinjected at the specific blood vessels 4 days before T cell transfer, 10 days after transfer, FIG. 21. The procedure: 0.2 μL each of 6-hydroxydopamine (6-OHDA) hydrochloride (2 mg/ml), which is a neurotoxin denaturalizing dopamine/noradrenergic neurons, or a vehicle 0.02% ascorbic acid was microinjected at the specific blood vessels of C57BL/6 mice 4 days before transferring EAE-pathogenic CD4 positive T cells (2 days before stress load), in the same way as in the Example 3 (2). Subsequently, induction of sleep disorder and transfer of EAE-pathogenic CD4 positive T cells were performed in the same way as in the Example 1 (1).
Photographs of the immunostained third ventricular regions of chemically sympathectomized mice 10 days after transferring EAE-pathogenic CD4 positive T cells are shown in FIG. 21. The immunostaining was performed with an anti-tyrosine hydroxylase antibody or anti-phosphorylated CREB antibody. 6-OHDA reduced tyrosine hydroxylase-positive sympathetic neurons, and suppressed phosphorylation of CREB induced by noradrenergic receptor-mediated signal transduction.

Assay [4] concerns C57BL/6 mouse with induction of sleep disorder. Description: Microinjection at the specific blood vessels of mice with induced sleep disorder: mortality and bloody stool scores. To be noted: 1 μg microinjected together with IL-6 and IL-17A at the specific blood vessels, 2 days after. The procedure: as §1
Then, whether local inflammation in the brain causes a disease was investigated by directly injecting an inflammatory cytokine at the specific blood vessels. The head of a C57BL/6 mouse with induction of sleep disorder or a control mouse was fixed to a stereotactic device under anesthesia, fur above the skull was shaved, and the skin was cleaned with 70% ethanol. […]
(§2) Furthermore, at the specific blood vessels of mice in which sleep disorder was induced, IL-6 and IL-17A, with or without a selective antagonist for P2X receptor which is an ATP receptor, A438079 (1 μg), were microinjected, in the same way as in the Example 3 (2). Phosphorylated cfos in the third ventricular region, bloody stool scores, and mortality were evaluated 2 days after the microinjection, and the results are shown in FIG. 34 and FIG. 35. […]

In a further assay the test system is PVN and DMH neurons. Description: Anti-phosphorylated cfos immunostaining of the hypothalamus (PVN and DMH) after microinjection at the specific blood vessels. To be noted: 2 days after.
Text: Then, whether local inflammation in the brain causes a disease was investigated by directly injecting an inflammatory cytokine at the specific blood vessels. The head of a C57BL/6 mouse with induction of sleep disorder or a control mouse was fixed to a stereotactic device under anesthesia, fur above the skull was shaved, and the skin was cleaned with 70% ethanol. A 30-gauge needle was lowered toward the specific blood vessels (coordinates: AP −1.06 mm; ML 1 mm; DV 2.25 mm), and EAE-pathogenic CD4 positive T cells (1×10^6 cells)+bone marrow derived dendritic cells pulsed with MOG (5×10^5 cells), IFN-γ (50 ng; PeproTech, Inc.)+IL-17A (50 ng; R&D Systems, Inc.), or IL-6 (50 ng; Toray Industries, Inc.)+IL-17A (50 ng) in 0.2 μL each were microinjected over 90 seconds as described previously (Kim et al. (2011), Mol. Brain, 19, 4-6). […]
as §2

For `Cl.NCCc1cc(O)c(O)cc1O` [6-OHDA, 6-hydroxydopamine hydrochloride], the mortality result in assay [1] (0.2 μL of 2 mg/ml microinjected at the specific blood vessels 4 days before T cell transfer, 10 days after transfer, FIG. 23B) is reported as “improved”. Moreover, the clinical scores result in assay [1] (0.2 μL of 2 mg/ml microinjected at the specific blood vessels 4 days before T cell transfer, FIG. 23A) is recorded as “improved”. Moreover, in assay [2], the “accumulation of CD4 positive T cells at the specific blood vessels” value was “suppressed” and the “accumulation of CD11b positive MHC class II-highly expressing cells at the specific blood vessels” value is “suppressed”. Further, in assay [3], the “phosphorylation of CREB” value is listed as “suppressed”. Besides, in assay [3] (vehicle 0.02% ascorbic acid), the “tyrosine hydroxylase-positive sympathetic neurons” value is reported as “reduced”.

Consider `Clc1cccc(-c2nnnn2Cc2cccnc2)c1Cl` [A438079], for which the mortality result in assay [4] (FIG. 35A) is “improved”. Besides, the “gastroenteritis (bloody stool scores)” value in assay [4] (FIG. 35B) was “improved”. Further, the “neural activation in the PVN and DMH (phosphorylated cfos)” value in the assay with PVN and DMH neurons (1 μg microinjected together with IL-6 and IL-17A at the specific blood vessels of mice with sleep disorder, FIG. 34) is reported as “suppressed”.

Consider `Nc1ncnc2c1ncn2[C@@H]1O[C@H](COP(=O)(O)OP(=O)(O)OP(=O)(O)O)[C@@H](O)[C@H]1O` [ATP], for which, in the assay on PVN and DMH neurons (microinjected at the specific blood vessels of mice with sleep disorder (IFN-γ+IL-17A 50 ng each; ATP 2 μg), FIG. 30), the “phosphorylated cfos, that is, neural activation, in the PVN and DMH” value is “activated”.

Turning to `NCc1cc(=O)[nH]o1` [Muscimol, muscimol], the mortality result in assay [1] (0.25 mg/mL microinjected into the DMH 5 days after T cell transfer, 10 days after transfer, FIG. 29B) is listed as “remarkably improved”. Moreover, the bloody stool scores result in assay [1] (0.25 mg/mL microinjected into the DMH 5 days after T cell transfer, 10 days after transfer, FIG. 29C) is reported as “remarkably improved”. The clinical scores result in assay [1] (0.25 mg/mL microinjected into the DMH 5 days after T cell transfer, vehicle saline, FIG. 29A) was “remarkably improved”.

Turning to `Cc1c(OCC(F)(F)F)ccnc1C[S+]([O-])c1nc2ccccc2[nH]1` (stereo not shown) [lansoprazole], the “mortality 10 days after the transfer” value in assay [1] (30 mg/kg body weight orally daily after transfer, control CMC, FIG. 6B) was “remarkably reduced”. Further, in assay [1] (30 mg/kg body weight orally daily after transfer, control CMC, FIG. 6C), the bloody stool scores result is reported as “remarkably reduced”. Further, the clinical scores entry in assay [1] (30 mg/kg body weight orally daily after transferring EAE-pathogenic CD4 positive T cells, control carboxymethyl cellulose, FIG. 6A) is “remarkably reduced”.
